# Source: ChEMBL document CHEMBL1201862, “PubChem BioAssay data set” (2004)
#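 1) Cells in 96-well plates. 2) Compound, 48 h, 5 concentrations. 3) Linear interpolation between surrounding doses. 4) Unreached endpoint = highest concentration. At the GI50, growth is halved.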 Calls of active or inactive are those of the source. Cut-off read from the data, not from the text of the source: active = GI50 up to about 1.1 µM and inactive = higher.
# Tests used:
# Experiment in all cases: DTP human tumour cell line panel, 48 h
# SNB-19 = tested on: SNB-19
# MDA-MB-435 = tested on: MDA-MB-435
# HOP-92 = tested on: HOP-92
# SK-OV-3 = tested on: SK-OV-3
# OVCAR-5 = tested on: OVCAR-5
# OVCAR-8 = tested on: OVCAR-8
# HT-29 = tested on: HT-29
# NCI-H460 = tested on: NCI-H460
# Malme-3M = tested on: Malme-3M
# SF-268 = tested on: SF-268
# MOLT-4 = tested on: MOLT-4
# UO-31 = tested on: UO-31
# UACC-257 = tested on: UACC-257
# HCT-116 = tested on: HCT-116
# BT-549 = tested on: BT-549
# CAKI-1 = tested on: CAKI-1
# T47D = tested on: T47D
# PC-3 = tested on: PC-3
# COLO 205 = tested on: COLO 205
# CCRF-CEM = tested on: CCRF-CEM
# K562 = tested on: K562
# HOP-62 = tested on: HOP-62
# NCI-H522 = tested on: NCI-H522
# SK-MEL-5 = tested on: SK-MEL-5
# SNB-75 = tested on: SNB-75
# M14 = tested on: M14
# OVCAR-3 = tested on: OVCAR-3
# MDA-MB-231 = tested on: MDA-MB-231
# TK-10 = tested on: TK-10
# UACC-62 = tested on: UACC-62
# 786-0 = tested on: 786-0
# NCI-H23 = tested on: NCI-H23
# KM12 = tested on: KM12
# ACHN = tested on: ACHN
# MDA-N = tested on: MDA-N
# EKVX = tested on: EKVX
# OVCAR-4 = tested on: OVCAR-4
# SK-MEL-2 = tested on: SK-MEL-2
# MCF7 = tested on: MCF7
# LOX IMVI = tested on: LOX IMVI
# Hs-578T = tested on: Hs-578T
# A498 = tested on: A498
# NCI-H226 = tested on: NCI-H226
# SF-295 = tested on: SF-295
# SN12C = tested on: SN12C
# RXF 393 = tested on: RXF 393
# HL-60 = tested on: HL-60
# NCI/ADR-RES = tested on: NCI/ADR-RES
# SR = tested on: SR
# IGROV-1 = tested on: IGROV-1
# SW-620 = tested on: SW-620
# RPMI-8226 = tested on: RPMI-8226
# SK-MEL-28 = tested on: SK-MEL-28
# SF-539 = tested on: SF-539
# U-251 = tested on: U-251
# DU-145 = tested on: DU-145
# HCT-15 = tested on: HCT-15
# A549 = tested on: A549
# HCC 2998 = tested on: HCC 2998
smiles,measurement,setting,value
Nc1ncnc2c1ncn2C1OC(C(=O)OCCO)C(O)C1O (stereo not drawn),GI50,SNB-19,> 100 µM (inactive)
same,GI50,MDA-MB-435,> 100 µM (inactive)
same,GI50,HOP-92,> 100 µM (inactive)
same,GI50,SK-OV-3,> 100 µM (inactive)
same,GI50,OVCAR-5,> 100 µM (inactive)
same,GI50,OVCAR-8,> 100 µM (inactive)
same,GI50,HT-29,> 100 µM (inactive)
same,GI50,NCI-H460,> 100 µM (inactive)
same,GI50,Malme-3M,> 100 µM (inactive)
same,GI50,SF-268,> 100 µM (inactive)
same,GI50,MOLT-4,> 100 µM (inactive)
same,GI50,UO-31,> 100 µM (inactive)
same,GI50,UACC-257,> 100 µM (inactive)
same,GI50,HCT-116,> 100 µM (inactive)
same,GI50,BT-549,> 100 µM (inactive)
same,GI50,CAKI-1,> 100 µM (inactive)
same,GI50,T47D,> 100 µM (inactive)
same,GI50,PC-3,> 100 µM (inactive)
same,GI50,COLO 205,> 100 µM (inactive)
same,GI50,CCRF-CEM,> 100 µM (inactive)
same,GI50,K562,> 100 µM (inactive)
same,GI50,HOP-62,> 100 µM (inactive)
same,GI50,NCI-H522,> 100 µM (inactive)
same,GI50,SK-MEL-5,> 100 µM (inactive)
same,GI50,SNB-75,> 100 µM (inactive)
same,GI50,M14,> 100 µM (inactive)
same,GI50,OVCAR-3,> 100 µM (inactive)
same,GI50,MDA-MB-231,> 100 µM (inactive)
same,GI50,TK-10,> 100 µM (inactive)
same,GI50,UACC-62,> 100 µM (inactive)
same,GI50,786-0,> 100 µM (inactive)
same,GI50,NCI-H23,> 100 µM (inactive)
same,GI50,KM12,> 100 µM (inactive)
same,GI50,ACHN,> 100 µM (inactive)
same,GI50,MDA-N,> 100 µM (inactive)
same,GI50,EKVX,> 100 µM (inactive)
same,GI50,OVCAR-4,> 100 µM (inactive)
same,GI50,SK-MEL-2,> 100 µM (inactive)
same,GI50,MCF7,> 100 µM (inactive)
same,GI50,LOX IMVI,> 100 µM (inactive)
same,GI50,Hs-578T,> 100 µM (inactive)
same,GI50,A498,> 100 µM (inactive)
same,GI50,NCI-H226,> 100 µM (inactive)
same,GI50,SF-295,> 100 µM (inactive)
same,GI50,SN12C,> 100 µM (inactive)
same,GI50,RXF 393,> 100 µM (inactive)
same,GI50,HL-60,> 100 µM (inactive)
same,GI50,NCI/ADR-RES,> 100 µM (inactive)
same,GI50,SR,> 100 µM (inactive)
same,GI50,IGROV-1,> 100 µM (inactive)
same,GI50,SW-620,> 100 µM (inactive)
same,GI50,RPMI-8226,> 100 µM (inactive)
same,GI50,SK-MEL-28,> 100 µM (inactive)
same,GI50,SF-539,> 100 µM (inactive)
same,GI50,U-251,> 100 µM (inactive)
same,GI50,DU-145,> 100 µM (inactive)
same,GI50,HCT-15,> 100 µM
same,GI50,A549,> 100 µM (inactive)
COC(=O)C(Cc1c[nH]c2ccccc12)NP(=O)(O)OCC1OC(n2cc(Br)c(=O)[nH]c2=O)CC1O (stereo not drawn),GI50,SNB-19,> 100 µM (inactive)
same,GI50,MDA-MB-435,> 100 µM (inactive)
same,GI50,HOP-92,> 100 µM (inactive)
same,GI50,SK-OV-3,> 100 µM (inactive)
same,GI50,OVCAR-5,> 100 µM (inactive)
same,GI50,OVCAR-8,> 100 µM (inactive)
same,GI50,HT-29,> 100 µM (inactive)
same,GI50,NCI-H460,> 100 µM (inactive)
same,GI50,Malme-3M,> 100 µM (inactive)
same,GI50,SF-268,> 100 µM (inactive)
same,GI50,MOLT-4,> 100 µM (inactive)
same,GI50,UO-31,> 100 µM (inactive)
same,GI50,UACC-257,> 100 µM (inactive)
same,GI50,HCT-116,> 100 µM (inactive)
same,GI50,BT-549,> 100 µM (inactive)
same,GI50,T47D,> 100 µM (inactive)
same,GI50,PC-3,> 100 µM (inactive)
same,GI50,COLO 205,> 100 µM (inactive)
same,GI50,CCRF-CEM,> 100 µM (inactive)
same,GI50,K562,> 100 µM (inactive)
same,GI50,HOP-62,> 100 µM (inactive)
same,GI50,NCI-H522,> 100 µM (inactive)
same,GI50,SK-MEL-5,> 100 µM (inactive)
same,GI50,SNB-75,> 100 µM (inactive)
same,GI50,M14,> 100 µM (inactive)
same,GI50,OVCAR-3,> 100 µM (inactive)
same,GI50,MDA-MB-231,> 100 µM (inactive)
same,GI50,TK-10,> 100 µM (inactive)
same,GI50,UACC-62,> 100 µM (inactive)
same,GI50,786-0,> 100 µM (inactive)
same,GI50,NCI-H23,> 100 µM (inactive)
same,GI50,KM12,> 100 µM (inactive)
same,GI50,ACHN,> 100 µM (inactive)
same,GI50,MDA-N,> 100 µM (inactive)
same,GI50,EKVX,> 100 µM (inactive)
same,GI50,OVCAR-4,> 100 µM (inactive)
same,GI50,SK-MEL-2,> 100 µM (inactive)
same,GI50,MCF7,> 100 µM (inactive)
same,GI50,LOX IMVI,> 100 µM (inactive)
same,GI50,Hs-578T,> 100 µM (inactive)
same,GI50,A498,> 100 µM (inactive)
same,GI50,NCI-H226,> 100 µM (inactive)
same,GI50,HCC 2998,> 100 µM (inactive)
same,GI50,SF-295,> 100 µM (inactive)
same,GI50,SN12C,> 100 µM (inactive)
same,GI50,RXF 393,> 100 µM (inactive)
same,GI50,HL-60,> 100 µM (inactive)
same,GI50,NCI/ADR-RES,> 100 µM (inactive)
same,GI50,SR,> 100 µM (inactive)
same,GI50,IGROV-1,> 100 µM (inactive)
same,GI50,SW-620,> 100 µM (inactive)
same,GI50,SK-MEL-28,> 100 µM (inactive)
same,GI50,SF-539,> 100 µM (inactive)
same,GI50,U-251,> 100 µM (inactive)
same,GI50,DU-145,> 100 µM (inactive)
same,GI50,HCT-15,> 100 µM
same,GI50,A549,> 100 µM (inactive)
Cc1cn2c(/C=C3/C(=O)Nc4cccc(Cl)c43)c(Cl)nc2s1,GI50,SNB-19,40.4 µM (inactive)
same,GI50,MDA-MB-435,> 100 µM (inactive)
same,GI50,HOP-92,34.3 µM (inactive)
same,GI50,SK-OV-3,27.7 µM (inactive)
same,GI50,OVCAR-5,> 100 µM (inactive)
same,GI50,OVCAR-8,> 100 µM (inactive)
same,GI50,HT-29,> 100 µM (inactive)
same,GI50,Malme-3M,> 100 µM (inactive)
same,GI50,SF-268,11.3 µM (inactive)
same,GI50,MOLT-4,> 100 µM (inactive)
same,GI50,UO-31,> 100 µM (inactive)
same,GI50,UACC-257,> 100 µM (inactive)
same,GI50,HCT-116,60.1 µM (inactive)
same,GI50,BT-549,22.3 µM (inactive)
same,GI50,CAKI-1,> 100 µM (inactive)
same,GI50,T47D,> 100 µM (inactive)
same,GI50,PC-3,> 100 µM (inactive)
same,GI50,CCRF-CEM,13.5 µM (inactive)
same,GI50,K562,> 100 µM (inactive)
same,GI50,HOP-62,13.6 µM (inactive)
same,GI50,NCI-H522,> 100 µM (inactive)
same,GI50,SNB-75,14.2 µM (inactive)
same,GI50,M14,34.7 µM (inactive)
same,GI50,OVCAR-3,61.9 µM (inactive)
same,GI50,MDA-MB-231,15.3 µM (inactive)
same,GI50,TK-10,17.9 µM (inactive)
same,GI50,UACC-62,19.6 µM (inactive)
same,GI50,786-0,18.5 µM (inactive)
same,GI50,NCI-H23,25.8 µM (inactive)
same,GI50,KM12,> 100 µM (inactive)
same,GI50,ACHN,20.6 µM (inactive)
same,GI50,MDA-N,> 100 µM (inactive)
same,GI50,EKVX,55.8 µM (inactive)
same,GI50,OVCAR-4,> 100 µM (inactive)
same,GI50,MCF7,> 100 µM (inactive)
same,GI50,LOX IMVI,> 100 µM (inactive)
same,GI50,Hs-578T,4.13 µM (inactive)
same,GI50,A498,63.2 µM (inactive)
same,GI50,HCC 2998,6.34 µM (inactive)
same,GI50,SF-295,36.3 µM (inactive)
same,GI50,SN12C,> 100 µM (inactive)
same,GI50,RXF 393,25.4 µM (inactive)
same,GI50,HL-60,53.7 µM (inactive)
same,GI50,NCI/ADR-RES,> 100 µM (inactive)
same,GI50,SR,> 100 µM (inactive)
same,GI50,IGROV-1,> 100 µM (inactive)
same,GI50,SW-620,3.18 µM (inactive)
same,GI50,RPMI-8226,> 100 µM (inactive)
same,GI50,SK-MEL-28,1.12 µM (inactive)
same,GI50,U-251,5.26 µM (inactive)
same,GI50,DU-145,> 100 µM (inactive)
same,GI50,HCT-15,> 100 µM
same,GI50,A549,27 µM (inactive)
